System: human breast milk-fed infants
Assay: Regression association of breast milk HMO levels with IBQ-R negative affectivity in infants
Type: in vivo
Protocol: In some embodiments, social-emotional skills are determined by an Infant Behavior Questionnaire (IBQ), such as the IBQ-Revised (IBQ-R). The “IBQ-R (revised Infant Behavior Questionnaire) questionnaire” is a widely used parent-report measure for assessing dimensions of temperament along 14 scales, as reported below, in infants between 3 and 12 months of age (see e.g. Gartstein, M. A. and Rothbart, M. K., 2003. Infant behavior and development, 26(1), pp. 64-86).
The subject's negative affectivity can be determined by any suitable method. In some embodiments, the subject's negative affectivity is determined by an Infant Behavior Questionnaire (IBQ), for example the IBQ-Revised (IBQ-R). For example, negative affectivity may be a domain constructed out of the following scales on the IBQ-R: sadness, fear, distress to limitations, activity level, and falling reactivity. The one or more HMOs according to the present invention may reduce sadness, fear, and/or distress to limitations. The one or more HMOs according to the present invention may improve activity level and/or rate of recovery from distress.
A total of 195 infants were tested. Breastmilk HMO levels were tested in breastmilk collected at two months and three months. Infant behaviours were assessed with an Infant Behaviour Questionnaire-Revised (IBQ-R). […]

For Lacto-N-difucohexaose I [LNDFHI], which IBQR (breast milk collected at 2 months, negative affectivity of infants at 9 months, N=195) is on record?
Its IBQR is “Reduced”.

And the “association with negative emotions in infants” value (infants at 9 months, breast milk HMO levels)?
The value was “associated with reduction in negative emotions”.
